{"source": "paper PMC10005185", "about": "“Structure-guided engineering of a receptor-agonist pair for inducible activation of the ABA adaptive response to drought” (Science Advances, 2023)", "key": {"HAB1 with PYL2": {"target": "T1, HAB1 with PYL2 (Arabidopsis thaliana, UniProt O80992)", "T1 construct": "His; made in house", "T1 sequence (O80992 whole entry)": "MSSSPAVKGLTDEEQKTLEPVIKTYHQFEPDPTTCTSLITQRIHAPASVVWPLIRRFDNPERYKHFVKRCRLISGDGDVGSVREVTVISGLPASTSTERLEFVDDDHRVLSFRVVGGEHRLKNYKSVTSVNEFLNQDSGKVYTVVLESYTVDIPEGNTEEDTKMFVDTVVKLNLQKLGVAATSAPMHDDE", "T1 sequence (Q9CAJ0 179-511 partner limits assumed)": "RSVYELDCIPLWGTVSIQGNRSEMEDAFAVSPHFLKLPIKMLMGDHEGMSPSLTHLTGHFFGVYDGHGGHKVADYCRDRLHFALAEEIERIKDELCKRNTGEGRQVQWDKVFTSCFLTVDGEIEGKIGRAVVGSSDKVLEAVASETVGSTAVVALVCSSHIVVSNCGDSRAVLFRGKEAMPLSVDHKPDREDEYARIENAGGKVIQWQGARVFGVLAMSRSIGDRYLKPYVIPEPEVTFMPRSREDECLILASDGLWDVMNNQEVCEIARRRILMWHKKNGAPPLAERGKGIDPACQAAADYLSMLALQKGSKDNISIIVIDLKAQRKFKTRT", "assay": "PP2C inhibition assay, HAB1 with PYL2", "type": "biochemical", "settings": "1 μM iSB09, PYL2", "method": "(§1) His-tagged receptors and phosphatases were purified using nickel–nitrilotriacetic acid (Ni-NTA) affinity chromatography. Protein integrity was analyzed by SDS–polyacrylamide gel electrophoresis, followed by InstantBlue staining. Phosphatase activity was measured using p-Nitrophenyl Phosphate (pNPP) (25 mM) as substrate, 10 mM MnCl2,1 μM PP2C, and 2 μM of the indicated receptors. Proteins were incubated with the ligands for 10 min at room temperature. pNPP was then added to start the reactions, and the absorbance at 405 nm was monitored for 20 min in a ViktorX5 plate reader. Assays were repeated twice. For dose-response experiments, IC50 values were obtained with GraphPad Prism 9 using a nonlinear regression curve fit. Each ligand concentration was tested in triplicate. Phosphatase activity of ABI1 was measured using RRA(phosphoT)VA peptide as a substrate, as described ([27])."}, "[1]": {"tested_on": "Arabidopsis thaliana seeds (WT Col-0, CsPYL1 and CsPYL1^5m lines)", "assay": "Seed germination assay", "type": "in vivo", "settings": "for IC50: Arabidopsis thaliana, read-out: Germination IC50", "method": "For seed germination assays, seeds were stratified in the dark at 4°C for 3 days. Approximately 100 seeds of each genotype were sown on MS plates supplemented with six different ligand concentrations. The experiments were repeated three times. To score seed germination, radical emergence was analyzed at 24 hours after sowing."}, "AtPYL5:ΔNHAB1": {"target": "AtPYL5:ΔNHAB1 (Arabidopsis thaliana, UniProt Q9FLB1)", "sequence (Q9FLB1 whole entry, stated change not applied)": "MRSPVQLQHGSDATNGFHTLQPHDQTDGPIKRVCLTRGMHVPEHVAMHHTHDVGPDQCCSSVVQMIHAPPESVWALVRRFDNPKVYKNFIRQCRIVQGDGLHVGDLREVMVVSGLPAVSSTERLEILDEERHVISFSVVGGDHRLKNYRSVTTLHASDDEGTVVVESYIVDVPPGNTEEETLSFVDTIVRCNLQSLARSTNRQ", "assay": "Native red electrophoresis of ligand-induced ternary complex", "protocol": "Electrophoresis was performed at a constant current of 25 mA for 150 min at 4°C. Proteins were detected in gel by InstantBlue staining, and band quantification was performed using the ImageJ software. To obtain apparent Kd values, the proportion of ternary complex formed (fraction bound) and the ABA or iSB09 free concentration in each lane were calculated and plotted as represented in Fig. 3 (E and F). Then, the dose-response curves were fitted to the classical Hill equation using the GraphPad Prism software."}, "ABI1 with CsPYL1^5m": {"tested_on": "ABI1 with CsPYL1^5m", "type": "biochemical, Citrus sinensis (CsPYL1^5m); Arabidopsis thaliana (ABI1)", "method": "as §1, with “Proteins were incubated with the ligands for 10 min at room temperature. pNPP was then added to start the reactions, and the absorbance at 405 nm was monitored for 20 min in a ViktorX5 plate reader.” left out"}, "HAB1 with PYR1": {"target": "T2, HAB1 with PYR1 (Arabidopsis thaliana, UniProt O49686)", "T2 construct": "His; made in house", "T2 sequence (O49686 whole entry)": "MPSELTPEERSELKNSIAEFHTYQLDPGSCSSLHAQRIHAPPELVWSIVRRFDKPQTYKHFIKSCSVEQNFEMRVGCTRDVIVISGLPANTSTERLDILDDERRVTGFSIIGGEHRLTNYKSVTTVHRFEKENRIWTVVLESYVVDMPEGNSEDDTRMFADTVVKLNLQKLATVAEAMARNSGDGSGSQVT", "T2 sequence (Q9CAJ0 179-511 partner limits assumed)": "as the sequence (Q9CAJ0 179-511 partner limits assumed) above", "assay": "PP2C inhibition assay, HAB1 with PYR1", "type": "biochemical", "settings": "1 μM iSB09, PYR1", "method": "as §1"}, "[2]": {"tested_on": "MAPKKK18 promoter-LUC reporter", "assay": "pMAPKKK18-LUC luciferase reporter assay", "type": "in vivo, Arabidopsis thaliana", "settings": "100 μM, 6 hours", "method": "[…]18-LUC seedlings were grown in 24-well plates (25 to 35 seeds per well) filled with 1 ml of liquid MS medium for 7 days. MS medium was replaced with fresh medium supplemented with 100 μM D-luciferin, potassium salt (GoldBio), and the indicated treatments with iSB07, iSB09, or ABA. Seedlings were incubated for 6 hours, and luminescence was recorded with a LAS-3000 imager (Fujifilm) equipped with a charge-coupled device camera using 2-min exposures. Eight-bit images were transformed in rainbow false color and quantified using Fiji. The experiment was repeated at least twice."}, "[3]": {"tested_on": "Arabidopsis thaliana seedlings", "assay": "Root growth assay", "type": "in vivo", "settings": "10 μM", "method": "Seedlings were grown on vertically oriented Murashige and Skoog (MS) plates for 4 to 5 days. Afterward, seedlings were transferred to MS supplemented with the indicated concentrations of the different ligands and kept on vertical orientation. Ten days later, the plates were scanned on a flatbed scanner to produce image files suitable for quantitative analysis of root growth using the NIH Image software ImageJ. The experiment was performed in triplicate (n = 13 to 16). Statistical comparisons were performed by either pairwise t tests or one-way ANOVA using GraphPad Prism 9."}, "ABI1 with AtPYL1": {"target": "T3, ABI1 with AtPYL1 (Arabidopsis thaliana, UniProt Q8VZS8)", "T3 construct": "His; made in house", "T3 sequence (Q8VZS8 whole entry)": "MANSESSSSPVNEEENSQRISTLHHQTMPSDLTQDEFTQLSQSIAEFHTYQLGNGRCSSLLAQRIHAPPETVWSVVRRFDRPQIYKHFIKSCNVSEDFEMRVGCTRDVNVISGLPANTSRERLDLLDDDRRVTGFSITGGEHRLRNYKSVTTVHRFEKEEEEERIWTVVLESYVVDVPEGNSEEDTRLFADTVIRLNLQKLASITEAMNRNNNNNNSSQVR", "T3 sequence (P49597 whole entry partner)": "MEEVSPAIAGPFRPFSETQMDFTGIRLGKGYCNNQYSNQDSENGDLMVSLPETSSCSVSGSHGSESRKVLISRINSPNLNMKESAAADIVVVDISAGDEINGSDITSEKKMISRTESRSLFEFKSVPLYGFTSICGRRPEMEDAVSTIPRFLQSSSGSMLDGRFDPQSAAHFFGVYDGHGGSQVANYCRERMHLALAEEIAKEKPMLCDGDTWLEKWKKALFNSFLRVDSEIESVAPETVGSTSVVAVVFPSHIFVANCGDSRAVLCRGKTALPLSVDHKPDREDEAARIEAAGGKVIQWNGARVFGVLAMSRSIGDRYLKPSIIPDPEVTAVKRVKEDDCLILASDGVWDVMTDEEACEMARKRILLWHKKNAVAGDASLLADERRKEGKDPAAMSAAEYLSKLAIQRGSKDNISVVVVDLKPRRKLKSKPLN", "assay": "PP2C inhibition assay, ABI1 with AtPYL1", "type": "biochemical", "settings": "1 µM phosphatase:2 µM receptor; read-out: IC50 of ABI1 with AtPYL1", "method": "as §1, with “([27]). […]” for “([27]).”\n(D) Dose response analysis of iSB09 or ABA-dependent inhibition of ABI1 (blue and black lines, respectively) in presence of either AtPYL1 or AtPYR1. Values (average of duplicates) show PP2C activity after incubation with the indicated concentration of ligand and receptor at 1:2 ratio (1 µM phosphatase:2 µM receptor). […]\nwhereas with AtPYR1 was 200 nM and 213 nM, for ABA and iSB09, respectively. Ligands were assayed"}, "[4]": {"tested_on": "Arabidopsis thaliana plants", "assay": "IR thermography of leaf temperature, arabidopsis", "type": "in vivo", "settings": "transgenic CsPYL1^5m lines and Col-0, 50 μM, 24 hours after spraying", "method": "A. thaliana plants were grown in a controlled environment growth chamber at 21°/19°C under 8-hour light/16-hour dark photoperiod at 100 μE m^−2 s^−1. IR thermography images of rosette leaves were acquired with a thermal camera FLIR E95 equipped with a 42° lens, 24 hours after spraying 6-week-old plants with 10 mM MES (pH 5.7) + 0.02% Silwet L-77 plus 50 μM ligand or 0.1% DMSO as a control. Images were processed and quantified with the FLIR tools software. The average temperature of 15 different sections taken from four to six leaves per plant was used for quantification. At least six plants per genotype were analyzed, and the experiments were repeated twice. Statistical analysis was performed using GraphPad Prism 9. T test or ANOVA analysis was carried out to identify statistical significance among datasets."}}, "note": "Read-outs that look alike come from different tables or passages of the source."}
{"compound": "CCn1c(=O)cc(C)c2cc(CNS(=O)(=O)c3ccccc3)ccc21", "note": "[iSB09]", "values": [{"measurement": "inhibition at 1 µM", "setting": "HAB1 with PYL2", "value": "60 to 70", "unit": "%"}, {"measurement": "IC50", "setting": "[1]; WT Col-0", "value": 4390, "unit": "nM"}, {"measurement": "IC50", "setting": "[1]; line expressing CsPYL1", "value": 1360, "unit": "nM"}, {"measurement": "IC50", "setting": "[1]; line expressing CsPYL1^5m", "value": 290, "unit": "nM"}, {"measurement": "inhibition of seed germination, iSB09 relative to iSB07", "setting": "[1]; plants expressing CsPYL1^5m", "value": "threefold more effective"}, {"measurement": "Kd", "setting": "AtPYL5:ΔNHAB1", "value": 1200, "unit": "nM"}, {"measurement": "sensitivity of ABI1 relative to HAB1 to iSB09-mediated CsPYL1^5m-dependent inhibition", "setting": "ABI1 with CsPYL1^5m", "value": "fivefold more sensitive"}, {"measurement": "inhibition at 1 µM", "setting": "HAB1 with PYR1", "value": "60 to 70", "unit": "%"}, {"measurement": "induction of LUC relative to 25 μM ABA", "setting": "[2]", "value": "approximately twofold higher"}, {"measurement": "inhibition of root growth", "setting": "[3]; CsPYL1^5m lines", "value": "marked inhibition"}, {"measurement": "inhibition of root growth", "setting": "[3]; WT plants", "value": "did not significantly inhibit"}, {"measurement": "IC50", "setting": "ABI1 with AtPYL1", "value": 226, "unit": "nM"}, {"measurement": "leaf temperature by thermal imaging", "setting": "[4]", "value": "increased leaf temperature"}]}
